Assay results: PubChem BioAssay (NCI)
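Briefly, cells in 96-well plates were exposed to five compound concentrations for 48 h, and endpoints were estimated by linear interpolation. GI50 is the concentration that inhibits growth by half. TGI: concentration producing complete growth inhibition.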

Assays:
Assay in all cases: inhibition of tumour cell growth, NCI panel, 48 h
HCT-116 colon = system: HCT-116 colon
HCT-15 colon = system: HCT-15 colon
IGROV1 ovarian = system: IGROV1 ovarian
KM12 colon = system: KM12 colon
NCI-H226 lung = system: NCI-H226 lung
OVCAR-3 ovarian = system: OVCAR-3 ovarian
RXF 393 renal = system: RXF 393 renal
SNB-75 CNS = system: SNB-75 CNS
DU-145 prostate = system: DU-145 prostate
MCF7 breast = system: MCF7 breast

| SMILES | TGI (HCT-116 colon) [µM] | TGI (HCT-15 colon) [µM] | TGI (IGROV1 ovarian) [µM] | TGI (KM12 colon) [µM] | TGI (NCI-H226 lung) [µM] | TGI (OVCAR-3 ovarian) [µM] | TGI (RXF 393 renal) [µM] | TGI (SNB-75 CNS) [µM] | TGI (DU-145 prostate) [µM] | TGI (MCF7 breast) [µM] | GI50 (DU-145 prostate) [µM] | GI50 (HCT-15 colon) [µM] | GI50 (IGROV1 ovarian) [µM] | GI50 (MCF7 breast) [µM] | GI50 (NCI-H226 lung) [µM] | GI50 (SNB-75 CNS) [µM] | GI50 (HCT-116 colon) [µM] | GI50 (KM12 colon) [µM] | GI50 (OVCAR-3 ovarian) [µM] | GI50 (RXF 393 renal) [µM] |
| --- | --- | --- | --- | --- | --- | --- | --- | --- | --- | --- | --- | --- | --- | --- | --- | --- | --- | --- | --- | --- |
| CC(=O)NC1=C(C)C(=O)c2c(nc3n2CCC3O)C1=O (stereo not given) | 67.7 | > 100 | > 89.7 | > 100 | 63.4 | > 46.1 | 48.3 | > 100 |  |  |  |  |  |  |  |  |  |  |  |  |
| O=c1[nH]c2cc3cccnc3c(Cl)c2nc1C(F)(F)F | > 100 | > 100 | > 100 | 63.7 | > 100 | > 100 | > 100 | 90.1 | > 100 | > 100 |  |  |  |  |  |  |  |  |  |  |
| CC1(C)[C@@H](Cn2cnc3c(=O)[nH]c(N)nc32)CC[C@@]1(C)CO | > 100 | > 100 |  | > 100 | > 100 | > 100 | > 100 | > 100 | > 100 | > 100 |  |  |  |  |  |  |  |  |  |  |
| CCNC(=O)/C=C/CCC#Cc1ccc(-c2ccc(-c3cccs3)s2)s1 | > 100 | > 100 | > 100 | > 100 | > 100 | > 100 | > 100 | > 100 |  |  |  |  |  |  |  |  |  |  |  |  |
| CCOC(=O)C1=C(C)C(C(=O)OC)/C(=C/c2cccc3cccnc23)C1=O (stereo not given) | > 10 | > 10 | > 10 | > 10 | > 10 | > 10 | > 10 | > 10 | > 10 | > 10 |  |  |  |  |  |  |  |  |  |  |
| Oc1ccc2c(c1)CC[N+]1=C2CCC2CCCC21 (stereo not given) | > 100 | > 100 | > 100 |  | > 100 | > 100 | > 100 | > 100 |  |  |  |  |  |  |  |  |  |  |  |  |
| CCOC(=O)c1c2c(n3ccc(NC(=O)OC(C)(C)C)cc13)C(=O)c1ncccc1C2=O |  | 1.49 | 2.28 |  | 0.757 |  |  | 1.72 | 1.66 | 0.202 | 0.0653 | 0.0195 | 0.152 | 0.0174 | 0.174 | 0.167 |  |  |  |  |
| NCCNCCCCCCNC(=O)c1cccc2cc3ccccc3nc12 | 6.33 | 25.5 | 17.2 | 4.93 | 5.02 | 7.16 | 9.68 | 11.8 | 2.92 | 5.39 |  |  |  |  |  |  |  |  |  |  |
| CCOP(=O)(OCC)/C(=C\N1C(=O)CC(=O)NC1=S)C(=O)OC | > 100 | > 100 | > 100 | > 100 | > 100 | > 100 | > 100 | > 100 | > 100 | > 100 |  |  |  |  |  |  |  |  |  |  |
| CCOC(=O)C(=O)C1C(=O)Nc2ccccc21 (stereo not given) | > 100 |  | > 100 | > 100 | > 100 | > 100 | > 100 | > 100 |  |  |  |  |  |  |  |  |  |  |  |  |
| CCOC(=O)CCc1c(C(=O)OCC)[nH]c(/C=C2\NC(=O)C(C)=C2CC)c1C | > 100 | > 100 | 23.7 | > 100 | > 100 | 49.6 | 49 | 27.8 | 55.6 | > 100 |  |  |  |  |  |  |  |  |  |  |
| COC(=O)c1ccc(CCc2cc(O)ccc2O)cc1 | 24 | 27.5 | 23.8 | 27.5 | 38.6 | 12.1 | 20.9 | 21.2 | > 100 | > 62.2 |  |  |  |  |  |  |  |  |  |  |
| C=C(CC(=O)Nc1ccc(C(=O)OC)o1)C(=O)OC | 76.7 | 59.1 | 55.5 | 42.5 | 66.8 |  | 33.3 | > 100 | > 100 | 54 |  |  |  |  |  |  |  |  |  |  |
| CC(C)[C@H]1NC(=O)[C@H]2N=C(O[C@@H]2C)[C@@H]2CCCN2C(=O)[C@H](Cc2ccccc2)NC(=O)[C@@H]2CSC(=N2)[C@@H](Cc2ccccc2)NC(=O)[C@@H]2CSC1=N2 | > 100 | > 100 | > 100 | > 100 | > 100 | > 100 | > 100 |  | > 100 | > 100 |  |  |  |  |  |  |  |  |  |  |
| C1#Cc2ccccc2OCCOc2ccccc2C#Cc2ccccc2OCCOc2ccccc21 | > 100 | > 100 | 41.5 | > 100 | 38.3 | 39.3 | 35.4 |  | > 100 | > 100 |  |  |  |  |  |  |  |  |  |  |
| O=c1[nH]c2ccccc2nc1/C=C(\O)C(F)F | > 100 | > 100 | > 100 | > 100 | > 100 | > 100 | > 100 |  | > 100 | > 100 |  |  |  |  |  |  |  |  |  |  |
| CC(=NCCN(CCN=C(C)c1c(O)cc(C)oc1=O)CCN=C(C)c1c(O)cc(C)oc1=O)c1c(O)cc(C)oc1=O | > 100 | > 100 | > 100 | > 100 |  |  |  | > 100 |  | > 100 |  |  |  |  |  |  |  |  |  |  |
| OCC(O)C1OC2CC1Nc1ccccc1N2 (stereo not given) | > 100 | > 100 | > 100 | > 100 | > 100 | > 100 |  | > 100 | > 100 |  |  |  |  |  |  |  |  |  |  |  |
| S=C1C(=Nc2ccccc2)N(c2ccccc2)/C(=N\c2ccccn2)N1c1ccccc1 | 30.4 | 27.7 | 26.2 | 25.5 | 36.8 |  | 22.4 | 28.3 | 35 |  |  |  |  |  |  |  |  |  |  |  |
| Nc1ccccc1NC(=O)CCCCCCC(=O)Nc1ccc2c(c1)/C(=C/c1ccc[nH]1)C(=O)N2 | > 100 | > 100 | > 100 | > 100 |  | > 100 | > 100 |  | > 100 | > 100 | 7.06 | > 100 | 49.8 | 3.6 |  |  | 6.13 | 1.45 | 5.42 | > 100 |
| O=C1C=C2CO[C@H]3OC[C@H](O)[C@@H]1[C@@H]23 | > 100 | > 100 | > 100 | > 100 |  | > 100 | 42 | > 100 | > 100 | > 100 |  |  |  |  |  |  |  |  |  |  |
| NS(=O)(=O)c1ccc(Nc2c3ccccc3nc3c(C(=O)NCCCN(CCO)CCO)cccc23)cc1 |  | > 100 | 68.2 | 38.5 |  | 62.5 |  |  | > 100 | 20.1 |  |  |  |  |  |  |  |  |  |  |
